Experimental data published in publication PMC10886162, “Synthesis of Novel Artemisinin, Ciprofloxacin, and Norfloxacin Hybrids with Potent Antiplasmodial Activity” (Antibiotics, 2024).
“And” between values parts separate entries of the source, which are not always exact repeats. Equal values may be shown once.

Key:
[1] = system: CQ-resistant P. falciparum FcB1 strain; assay: In vitro growth inhibition of P. falciparum FcB1 ([3H]-hypoxanthine incorporation); format: cell-based, Plasmodium falciparum; details: for IC50: Plasmodium falciparum; for Selectivity Index (IC50 AB943/IC50 FcB1): ratio of cytotoxicity IC50 to antiplasmodial IC50 (FcB1)
Protocol: (§1) The chloroquine-resistant FcB1/Colombia and Dd2/Indochina strains of Plasmodium falciparum were obtained from the Protist Collection of the National Museum of Natural History, Paris, France (n° MNHN-CEU-2016-224-PfFCB1 and MNHN-CEU-2016-222-PfDD2). The parasites were maintained in vitro on human erythrocytes in RPMI 1640 medium supplemented by 8% (v/v) heat-inactivated human serum, at 37 °C, under an atmosphere of 5% CO2. The human red blood cells and serum were provided by the Établissement Français du Sang under the C-CPSL-UNT approval no. 13/EFS/126. The in vitro drug susceptibility assays were measured by [^3H]-hypoxanthine incorporation, as previously described. The drug stock solutions were prepared in DMSO. Briefly, the assays were performed in 96-well plates. The compounds were diluted in the culture medium (100 μL per well). The parasite cultures (100 μL, 2% parasitaemia, and 1% final hematocrit) were then added to each well and incubated for 24 h at 37 °C prior to the addition of 0.5 μCi of [^3H]- hypoxanthine (GE Healthcare, Paris, France, 1 to 5 Ci·mmol/mL) per well. After a further incubation of 24 h, the plates were frozen and thawed. The cell lysates were then collected onto fiberglass filters and counted in a liquid scintillation spectrometer. The growth inhibition for each drug concentration was determined through a comparison of the radioactivity incorporated in the treated culture with that in the control culture maintained on the same plate. The drugs were first evaluated for a range of fixed concentrations of 50, 5, 0.5, 0.05, and 0.005 μg/mL. […] The IC50 value was obtained from the drug concentration–response curve, and the results were expressed in μM or nM as the mean values ± standard deviations determined from several independent experiments. Artesunate (46) was used as an antimalarial drug control.

[2] = system: CQ-resistant Dd2 strain of P. falciparum; assay: In vitro growth inhibition of P. falciparum Dd2 ([3H]-hypoxanthine incorporation); format: cell-based, Plasmodium falciparum; details: for IC50: Plasmodium falciparum, CQ-resistant Dd2, mean +/− SD of at least three independent experiments; for Selectivity Index (IC50 AB943/IC50 Dd2): ratio of cytotoxicity IC50 to antiplasmodial IC50 (Dd2)
Protocol: as §1

[3] = system: human primary fibroblasts AB943; assay: Cytotoxicity upon human primary fibroblasts AB943 (resazurin); format: cell-based; details: Fibroblast, 72 h, mean +/− SD of at least three independent experiments
Protocol: A cellular cytotoxicity evaluation was performed upon human primary fibroblasts AB943, as previously described. The assays were realized in 96-well plates in DMEM + Glutamax without phenol red medium containing 25 mM HEPES, a pH of 7.3, and 10% of fetal calf serum under a 5% CO2 atmosphere, at 37 °C. After trypsin treatment, the AB943 cells were seeded at 2000 cells per well in 100 μL. After 24 h of incubation, drugs diluted in the culture medium were added (100 μL per well). The drug stock solutions were prepared in dimethyl sulfoxide (DMSO). The final DMSO concentration in the cultures remained below 1%. Control cultures were constituted of cultures treated with DMSO instead of the drug. The cytotoxicity assay was based on the conversion of a redo-sensitive dye (resazurin) to a fluorescent product via viable cells. After 72 h of incubation, the resazurin solution was added in each well at a final concentration of 45 μM. The fluorescence was measured at 530 nm excitation and 590 nm emission wavelengths after 4 h of incubation. The percentage of the inhibition of cell growth was calculated by comparing the fluorescence of cells maintained in the presence of the drug to that in the absence of the drug. The concentration causing 50% growth inhibition (IC50) was obtained from the drug concentration–response curve, and the results were expressed as the mean values ± standard deviations determined from several experiments.

[4] = FCB1, CQ-resistant FcB1, mean +/− standard deviation of independent experiments (at least four in Tables 1-2, at least three in Tables 3-4)
[5] = FCB1, Table 5, single compound (hybrid or AS alone)

CCCCOC(=O)c1cn(CC)c2cc(N3CCN(C(=O)CCC(=O)O[C@@H]4O[C@@H]5O[C@@]6(C)CCC7[C@H](C)CCC([C@H]4C)[C@]75OO6)CC3)c(F)cc2c1=O (stereo partly drawn) [Compound 24, Butyl 1-ethyl-6-fluoro-4-oxo-7-(4-(4-oxo-4-(((3R,6R,9R,10S,12R,12aR)-3,6,9-trimethyldecahydro-12H-3,12-epoxy[1,2]dioxepino[4,3-i]isochromen-10-yl)oxy)butanoyl)piperazin-1-yl)-1,4-dihydroquinoline-3-carboxylate]
IC50 [1, 4]: 1.9 nM
IC50 [1, 5]: 1.9 nM
Selectivity Index (IC50 AB943/IC50 FcB1) [1]: 16,000 and 16,047
IC50 [2]: 9.2 nM
Selectivity Index (IC50 AB943/IC50 Dd2) [2]: 3311
IC50 [3]: 30300 nM
melting point: 155 to 156 °C

CCn1cc(C(=O)N2CCN(c3ccnc4cc(Cl)ccc34)CC2)c(=O)c2cc(F)c(N3CCN(C(=O)CCC(=O)O[C@@H]4O[C@@H]5O[C@@]6(C)CCC7[C@H](C)CCC([C@H]4C)[C@]75OO6)CC3)cc21 (stereo partly drawn) [Compound 29, (3R,6R,9R,10S,12R,12aR)-3,6,9-trimethyldecahydro-12H-3,12-epoxy[1,2]dioxepino[4,3-i]isochromen-10-yl 4-(4-(3-(4-(7-chloroquinolin-4-yl)piperazine-1-carbonyl)-1-ethyl-6-fluoro-4-oxo-1,4-dihydroquinolin-7-yl)piperazin-1-yl)-4-oxobutanoate]
IC50 [1, 4]: 5 nM
Selectivity Index (IC50 AB943/IC50 FcB1) [1]: 6027
IC50 [2]: 18.2 nM
Selectivity Index (IC50 AB943/IC50 Dd2) [2]: 1658
IC50 [3]: 30300 nM
melting point: 168.7 to 169.6 °C

C[C@@H]1CCC2[C@@H](C)[C@@H](CC(=O)N3CCN(c4cc5c(cc4F)c(=O)c(C(=O)N4CCN(c6ccnc7cc(Cl)ccc67)CC4)cn5C4CC4)CC3)O[C@@H]3O[C@@]4(C)CCC1[C@@]23OO4 (stereo partly drawn) [Compound 25, 3-(4-(7-chloroquinolin-4-yl)piperazine-1-carbonyl)-1-cyclopropyl-6-fluoro-7-(4-(2-((3R,6R,9R,10R,12R,12aR)-3,6,9-trimethyldecahydro-12H-3,12-epoxy[1,2]dioxepino[4,3-i]isochromen-10-yl)acetyl)piperazin-1-yl)quinolin-4(1H)-one]
IC50 [1, 4]: 7.5 nM
Selectivity Index (IC50 AB943/IC50 FcB1) [1]: 521
IC50 [2]: 17.7 nM
Selectivity Index (IC50 AB943/IC50 Dd2) [2]: 220
IC50 [3]: 3900 nM
melting point: 160.2 to 161.3 °C

C[C@@H]1CCC2[C@@H](C)[C@H](OC(=O)CCC(=O)N3CCN(c4cc5c(cc4F)c(=O)c(C(=O)O)cn5C4CC4)CC3)O[C@@H]3O[C@@]4(C)CCC1[C@@]23OO4 (stereo partly drawn) [Compound 20, 1-cyclopropyl-6-fluoro-4-oxo-7-(4-(4-oxo-4-(((3R,6R,9R,10S,12R,12aR)-3,6,9-trimethyldecahydro-12H-3,12-epoxy[1,2]dioxepino[4,3-i]isochromen-10-yl)oxy)butanoyl)piperazin-1-yl)-1,4-dihydroquinoline-3-carboxylic acid]
IC50 [1, 4]: 4 nM
Selectivity Index (IC50 AB943/IC50 FcB1) [1]: 10,318
IC50 [2]: 8 nM
Selectivity Index (IC50 AB943/IC50 Dd2) [2]: 5146
IC50 [3]: 41300 nM
melting point: 103.4 to 104.5 °C

CCCCOC(=O)c1cn(C2CC2)c2cc(N3CCN(C(=O)CCC(=O)O[C@@H]4O[C@@H]5O[C@@]6(C)CCC7[C@H](C)CCC([C@H]4C)[C@]75OO6)CC3)c(F)cc2c1=O (stereo partly drawn) [Compound 22, Butyl 1-cyclopropyl-6-fluoro-4-oxo-7-(4-(4-oxo-4-(((3R,6R,9R,10S,12R,12aR)-3,6,9-trimethyldecahydro-12H-3,12-epoxy[1,2]dioxepino[4,3-i]isochromen-10-yl)oxy)butanoyl)piperazin-1-yl)-1,4-dihydroquinoline-3-carboxylate]
IC50 [1, 4]: 3.5 nM
IC50 [1, 5]: 3.5 nM
Selectivity Index (IC50 AB943/IC50 FcB1) [1]: 11,303
IC50 [2]: 13 nM
Selectivity Index (IC50 AB943/IC50 Dd2) [2]: 3002
IC50 [3]: 38900 nM
melting point: 128.6 to 129.7 °C

C[C@@H]1CCC2[C@@H](C)[C@@H](CC(=O)N3CCN(c4cc5c(cc4F)c(=O)c(C(=O)O)cn5C4CC4)CC3)O[C@@H]3O[C@@]4(C)CCC1[C@@]23OO4 (stereo partly drawn) [Compound 12, 1-cyclopropyl-6-fluoro-4-oxo-7-(4-(2-((3R,6R,9R,10R,12R,12aR)-3,6,9-trimethyldecahydro-12H-3,12-epoxy[1,2]dioxepino[4,3-i]isochromen-10-yl)acetyl)piperazin-1-yl)-1,4-dihydroquinoline-3-carboxylic acid]
IC50 [1, 4]: 14.8 nM
Selectivity Index (IC50 AB943/IC50 FcB1) [1]: 4453
IC50 [2]: 32.5 nM
Selectivity Index (IC50 AB943/IC50 Dd2) [2]: 2034
IC50 [3]: 66100 nM
melting point: 123 to 124 °C

CCOC(=O)c1cn(C2CC2)c2cc(N3CCN(C(=O)CCC(=O)O[C@@H]4O[C@@H]5O[C@@]6(C)CCC7[C@H](C)CCC([C@H]4C)[C@]75OO6)CC3)c(F)cc2c1=O (stereo partly drawn) [Compound 21, Ethyl 1-cyclopropyl-6-fluoro-4-oxo-7-(4-(4-oxo-4-(((3R,6R,9R,10S,12R,12aR)-3,6,9-trimethyldecahydro-12H-3,12-epoxy[1,2]dioxepino[4,3-i]isochromen-10-yl)oxy)butanoyl)piperazin-1-yl)-1,4-dihydroquinoline-3-carboxylate]
IC50 [1, 4]: 5.4 nM
Selectivity Index (IC50 AB943/IC50 FcB1) [1]: 9826
IC50 [2]: 16 nM
Selectivity Index (IC50 AB943/IC50 Dd2) [2]: 3302
IC50 [3]: 52800 nM
melting point: 115.4 to 116.2 °C

CCCCOC(=O)c1cn(C2CC2)c2cc(N3CCN(C(=O)C[C@H]4O[C@@H]5O[C@@]6(C)CCC7[C@H](C)CCC([C@H]4C)[C@]75OO6)CC3)c(F)cc2c1=O (stereo partly drawn) [Compound 16, Butyl 1-cyclopropyl-6-fluoro-4-oxo-7-(4-(2-((3R,6R,9R,10R,12R,12aR)-3,6,9-trimethyldecahydro-12H-3,12-epoxy[1,2]dioxepino[4,3-i]isochromen-10-yl)acetyl)piperazin-1-yl)-1,4-dihydroquinoline-3-carboxylate]
IC50 [1, 4]: 7.5 nM
Selectivity Index (IC50 AB943/IC50 FcB1) [1]: 2000
IC50 [2]: 24 nM
Selectivity Index (IC50 AB943/IC50 Dd2) [2]: 622
IC50 [3]: 14900 nM
melting point: 105 to 106 °C

CCn1cc(C(=O)N2CCN(c3ccnc4cc(Cl)ccc34)CC2)c(=O)c2cc(F)c(N3CCNCC3)cc21 [Compound 43]
IC50 [1, 4]: 476 nM
Selectivity Index (IC50 AB943/IC50 FcB1) [1]: 27
IC50 [2]: 483 nM
Selectivity Index (IC50 AB943/IC50 Dd2) [2]: 26
IC50 [3]: 12700 nM

CCCCOC(=O)c1cn(CC)c2cc(N3CCN(C(=O)C[C@H]4O[C@@H]5O[C@@]6(C)CCC7[C@H](C)CCC([C@H]4C)[C@]75OO6)CC3)c(F)cc2c1=O (stereo partly drawn) [Compound 19, Butyl 1-ethyl-6-fluoro-4-oxo-7-(4-(2-((3R,6R,9R,10R,12R,12aR)-3,6,9-trimethyldecahydro-12H-3,12-epoxy[1,2]dioxepino[4,3-i]isochromen-10-yl)acetyl)piperazin-1-yl)-1,4-dihydroquinoline-3-carboxylate]
IC50 [1, 4]: 13.9 nM
Selectivity Index (IC50 AB943/IC50 FcB1) [1]: 1294
IC50 [2]: 38.4 nM
Selectivity Index (IC50 AB943/IC50 Dd2) [2]: 469
IC50 [3]: 18000 nM
melting point: 151 to 152 °C
